The record followed here is patent US20230346771A1, “INHIBITORS OF ENPP1 AND MODULATION OF BONE GROWTH” (Petragen, Inc., priority 2022, published 2023).

The test system of the assay is fenestration defects on buccal aspect of mandibular first molar in mice. The assay is described as follows: Fenestration defect model with microCT of mandibles. The following applies: high dose (10 uM, 1 uL on collagen sponge in defect); 28 days; compared to ALPL, DMSO and low dose. It is filed as in vivo. On the procedure: Fenestration defects were created on buccal aspect of mandibular first molar, distal root, in 6-7 week old mice. Collagen sponge with 1 uL of either alkaline phosphatase (ALPL) (100 ng/uL), DMSO (1 uL undiluted), high dose ENPP1 inhibitor (10 uM), low dose ENPP1 inhibitor (1 uM) was applied in the defect (n=3 or 4 for each group). Mice were euthanized 28 days later, and their mandibles were microCT scanned (unoperated side, defect side). A region of interest was defined as follows: • Right and left sides registered to each other to standardize position; • 480 microns mesial to and 3600 microns distal to first molar mesial height of contour; and
Unoperated side with defect side were registered, the enamel was removed from analysis, and change in volume (defect side—control side) was calculated from for dentin/cementum and alveolar bone for each treatment: ALPL, DMSO, low dose ENPP1 inhibitor, and high dose ENPP1 inhibitor. Regenerated bone area was much larger than defect size. To make the defect, muscle attachment was severed, and the region was curetted. Because the collagen sponge was placed in the defect and not fully enclosed (muscle was repositioned and sutured over sponge), there could be some leakage of DMSO/ALP/ENPP1 inhibitor, further stimulating bone growth.

Regarding `COc1ccc2c(-c3ccc(CNS(N)(=O)=O)cc3)ccnc2c1` [ENPP1 inhibitor, N-[[4-(7-methoxy-4-quinolinyl)phenyl]methyl]-sulfamide], the “bone densities on the fenestration side (density heat maps)” value is “higher”.
